Reference: PubChem BioAssay (NCI)
“And” between values parts separate entries of the source, which are not always exact repeats. Identical values can stand only once.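 Five concentrations, 48 hours, 96-well plates. Here, GI50 denotes the concentration required for 50% inhibition of growth. TGI marks complete inhibition of growth.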

Tests used:
Experiment in all cases: inhibition of tumour cell growth, NCI panel, 48 h
SN12C renal = test system: SN12C renal
MCF7 breast = test system: MCF7 breast
SK-MEL-28 melanoma = test system: SK-MEL-28 melanoma
LOX IMVI melanoma = test system: LOX IMVI melanoma
MDA-MB-231 breast = test system: MDA-MB-231 breast
OVCAR-3 ovarian = test system: OVCAR-3 ovarian
U251 CNS = test system: U251 CNS
IGROV1 ovarian = test system: IGROV1 ovarian
SF-268 CNS = test system: SF-268 CNS
HOP-62 NSCLC = test system: HOP-62 NSCLC

Compound	GI50 (SN12C renal)	TGI (SN12C renal)	GI50 (MCF7 breast)	TGI (MCF7 breast)	GI50 (SK-MEL-28 melanoma)	TGI (SK-MEL-28 melanoma)	GI50 (LOX IMVI melanoma)	TGI (LOX IMVI melanoma)	GI50 (MDA-MB-231 breast)	TGI (MDA-MB-231 breast)	GI50 (OVCAR-3 ovarian)	TGI (OVCAR-3 ovarian)	GI50 (U251 CNS)	TGI (U251 CNS)	GI50 (IGROV1 ovarian)	TGI (IGROV1 ovarian)	GI50 (SF-268 CNS)	TGI (SF-268 CNS)	GI50 (HOP-62 NSCLC)	TGI (HOP-62 NSCLC)
O=[N+]([O-])c1cccc(-c2nc3sccn3c2-c2ccnc(NCCCNS(=O)(=O)c3cccc(F)c3)n2)c1	2.71 µM	44.8 µM	2.16 µM	8.48 µM	2.63 µM	7.76 µM	2.58 µM	11 µM	6.41 µM	27.2 µM	2.53 µM	11.9 µM	4.56 µM	39.4 µM	2.71 µM	11.6 µM	3.21 µM	21.9 µM	3.5 µM	14.1 µM
CC(=O)NC1=C(OS(=O)(=O)c2ccc(C)cc2)CN(C)C1=O		16.4 µM		11.7 µM		> 42.7 µM		17.5 µM		23.1 µM		8.14 µM		8.75 µM		12.1 µM		45 µM		11.9 µM
Cc1ccc(-c2cc(-c3ccc(C)cc3)nc(NCCNc3ccnc4cc(Cl)ccc34)n2)cc1	1.63 µM	3.29 µM	1.75 µM	3.64 µM	1.76 µM	3.38 µM	1.83 µM	3.71 µM	1.88 µM	3.67 µM	1.66 µM	3.15 µM	1.72 µM	3.36 µM	1.52 µM	3.16 µM	1.72 µM	3.54 µM	1.89 µM	3.8 µM
O=C(O)C/C=C/CC(=O)O		> 100 µM		> 100 µM		> 100 µM		> 100 µM		> 100 µM		> 100 µM		> 100 µM		> 100 µM		> 100 µM		> 100 µM
CC(C)(C)c1ccc(OCCCCCCN2CCNCC2)cc1	11.7 µM	27.8 µM	3.03 µM	10.3 µM	3.23 µM	11.4 µM	1.83 µM	3.66 µM	2.53 µM	7.97 µM	7.38 µM	20.8 µM	3.32 µM	13.2 µM	6.34 µM	22.6 µM	10.7 µM	24.4 µM	11 µM	25.8 µM
Cc1ccc(C2=NOC3=c4ccccc4=CSC3=C2c2ccc([N+](=O)[O-])cc2)cc1	18.3 µM	> 100 µM	11.1 µM	88.8 µM	> 100 µM	> 100 µM	16.2 µM	53.8 µM	8.59 µM	28 µM	10 µM	41.9 µM	10.3 µM	36.1 µM	14.2 µM	> 100 µM	18.1 µM	46.7 µM	13.6 µM	55.8 µM
C=C1CC[C@@H]2[C@](C)(COC(C)=O)[C@@H](O)CC[C@@]2(C)[C@@H]1COc1ccc2ccc(=O)oc2c1	> 100 µM	> 100 µM	> 100 µM	> 100 µM	> 100 µM	> 100 µM	> 100 µM	> 100 µM	> 100 µM	> 100 µM	> 100 µM	> 100 µM	61.2 µM	> 100 µM	> 100 µM	> 100 µM	> 100 µM	> 100 µM	> 100 µM	> 100 µM
CC(C)(C)c1n[nH]c(=S)n(/N=C/c2ccc(F)c(Oc3ccccc3)c2)c1=O	48.5 µM	> 100 µM	40.5 µM	> 100 µM	20.7 µM	> 100 µM	28.7 µM	72.2 µM	34.6 µM	> 100 µM	28.3 µM	95.7 µM	39.2 µM	> 100 µM	35.9 µM	> 100 µM	35.9 µM	> 100 µM	90.1 µM	> 100 µM
Cc1ccc(C(=O)Nc2cccc(C(F)(F)F)c2)cc1Nc1nc(-c2cccnc2)nc2c1cnn2C	2.45 µM and 1.7 µM	13.8 µM and > 10 µM	2.42 µM and 1.98 µM	7.65 µM and 6.24 µM	0.866 µM and 0.389 µM	7.66 µM and 3.4 µM	1.4 µM and 0.704 µM	3.72 µM and 2.61 µM	0.769 µM and 0.348 µM	3.21 µM and 3.95 µM	3.86 µM and 2.53 µM	17.4 µM and 7.27 µM	3.66 µM and 2.9 µM	22 µM and > 10 µM	1.74 µM and 0.851 µM	8.71 µM and 5 µM	4.01 µM and 2.91 µM	21.9 µM and > 10 µM	2.62 µM and 1.04 µM	15.2 µM and > 10 µM
C/C(=N\Nc1ccc2ccccc2n1)c1ccccn1	0.0914 µM	14.9 µM	0.102 µM	5.21 µM	0.345 µM	16.2 µM	0.0627 µM	1.42 µM	< 0.042 µM	4.06 µM	< 0.0192 µM	4.24 µM	0.0462 µM	1.48 µM		0.979 µM	0.0489 µM	10.8 µM	0.09 µM	11 µM
COc1cc2nc(N3CCCC3)nc(NCC3CCCCC3)c2cc1OC	1.48 µM	2.91 µM	0.515 µM	2.03 µM	1.55 µM	2.91 µM	0.281 µM	0.793 µM	1.53 µM	3.04 µM	1.55 µM	2.99 µM	1.21 µM	2.64 µM	1.48 µM	3.06 µM	1.75 µM	3.45 µM	1.56 µM	3.2 µM
COc1cccc(NC(=O)c2sc3nc4c(cc3c2N)CN(Cc2ccccc2)CC4)c1	11.2 µM	> 100 µM	0.62 µM	> 100 µM	2.8 µM	29.7 µM	4.09 µM	43.5 µM	11.4 µM	75.3 µM	7.53 µM	26.9 µM	2.74 µM	19.2 µM	18.5 µM	> 100 µM	3.66 µM	20.7 µM	1.83 µM	6.47 µM
COc1cccc(C=Nc2cc(C)ccn2)c1O.COc1cccc(C=Nc2cc(C)ccn2)c1O.[Cu]	19 µM	50.4 µM	19.7 µM	62.8 µM	21.7 µM	48 µM	8.53 µM	30.9 µM	23.2 µM	50.4 µM	14 µM	40.9 µM	15.7 µM	51.1 µM	21.4 µM	48.8 µM	14.6 µM	42.2 µM	22.2 µM	63.7 µM
